Source: PubChem BioAssay (NCI)
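Assay format: 96-well plates, 48-hour exposure. Abbreviation: GI50, concentration required for 50% inhibition of growth. TGI marks complete inhibition of growth.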

Tests used:
Test in all cases: NCI tumour cell line growth inhibition, 48 h
786-0 renal = system: 786-0 renal
A498 renal = system: A498 renal
A549 NSCLC = system: A549 NSCLC
ACHN renal = system: ACHN renal
BT-549 breast = system: BT-549 breast
CAKI-1 renal = system: CAKI-1 renal
CCRF-CEM leukemia = system: CCRF-CEM leukemia
COLO 205 colon = system: COLO 205 colon
DU-145 prostate = system: DU-145 prostate
EKVX NSCLC = system: EKVX NSCLC
HCC-2998 colon = system: HCC-2998 colon
HCT-116 colon = system: HCT-116 colon
HCT-15 colon = system: HCT-15 colon
HL-60(TB) leukemia = system: HL-60(TB) leukemia
HOP-62 NSCLC = system: HOP-62 NSCLC
HOP-92 NSCLC = system: HOP-92 NSCLC
HS 578T breast = system: HS 578T breast
HT29 colon = system: HT29 colon
IGROV1 ovarian = system: IGROV1 ovarian
K-562 leukemia = system: K-562 leukemia
KM12 colon = system: KM12 colon
LOX IMVI melanoma = system: LOX IMVI melanoma
M14 melanoma = system: M14 melanoma
MALME-3M melanoma = system: MALME-3M melanoma
MCF7 breast = system: MCF7 breast
MDA-MB-231 breast = system: MDA-MB-231 breast
MDA-MB-435 = system: MDA-MB-435
MDA-MB-468 breast = system: MDA-MB-468 breast
MOLT-4 leukemia = system: MOLT-4 leukemia
NCI-H226 lung = system: NCI-H226 lung
NCI-H23 lung = system: NCI-H23 lung
NCI-H460 lung = system: NCI-H460 lung
NCI-H522 lung = system: NCI-H522 lung
NCI/ADR-RES ovarian = system: NCI/ADR-RES ovarian
OVCAR-3 ovarian = system: OVCAR-3 ovarian
OVCAR-4 ovarian = system: OVCAR-4 ovarian
OVCAR-5 ovarian = system: OVCAR-5 ovarian
OVCAR-8 ovarian = system: OVCAR-8 ovarian
PC-3 prostate = system: PC-3 prostate
RPMI-8226 leukemia = system: RPMI-8226 leukemia
RXF 393 renal = system: RXF 393 renal
SF-268 CNS = system: SF-268 CNS
SF-295 CNS = system: SF-295 CNS
SF-539 CNS = system: SF-539 CNS
SK-MEL-2 melanoma = system: SK-MEL-2 melanoma
SK-MEL-28 melanoma = system: SK-MEL-28 melanoma
SK-MEL-5 melanoma = system: SK-MEL-5 melanoma
SK-OV-3 ovarian = system: SK-OV-3 ovarian
SN12C renal = system: SN12C renal
SNB-19 CNS = system: SNB-19 CNS
SNB-75 CNS = system: SNB-75 CNS
SR leukemia = system: SR leukemia
SW-620 colon = system: SW-620 colon
T-47D breast = system: T-47D breast
TK-10 renal = system: TK-10 renal
U251 CNS = system: U251 CNS
UACC-257 melanoma = system: UACC-257 melanoma
UACC-62 melanoma = system: UACC-62 melanoma
UO-31 renal = system: UO-31 renal

## O=C(Cn1c(-c2ccccc2)nc2ccccc21)N=Nc1c(O)[nH]c2ccc(Cl)cc12
786-0 renal
  GI50: 17.9 µM
  TGI: 39 µM
A498 renal
  GI50: 13.6 µM
  TGI: 27.3 µM
A549 NSCLC
  GI50: 13.6 µM
  TGI: 30.8 µM
ACHN renal
  GI50: 16 µM
  TGI: 34 µM
BT-549 breast
  GI50: 16.7 µM
  TGI: 35.7 µM
CAKI-1 renal
  GI50: 13.5 µM
  TGI: 27 µM
CCRF-CEM leukemia
  GI50: 20 µM
  TGI: > 100 µM
COLO 205 colon
  GI50: 21 µM
  TGI: 47.9 µM
DU-145 prostate
  GI50: 18.4 µM
  TGI: 40.2 µM
EKVX NSCLC
  GI50: 11 µM
  TGI: 25.6 µM
HCC-2998 colon
  GI50: 13.4 µM
  TGI: 27.5 µM
HCT-116 colon
  GI50: 10 µM
  TGI: 29.3 µM
HCT-15 colon
  GI50: 9.6 µM
  TGI: 24 µM
HL-60(TB) leukemia
  GI50: 24 µM
  TGI: > 100 µM
HOP-62 NSCLC
  GI50: 17.2 µM
  TGI: 37.7 µM
HOP-92 NSCLC
  GI50: 13.6 µM
  TGI: 31.4 µM
HS 578T breast
  GI50: 16.5 µM
  TGI: 49.6 µM
HT29 colon
  GI50: 14.7 µM
  TGI: 30.7 µM
IGROV1 ovarian
  GI50: 14.4 µM
  TGI: 29.9 µM
K-562 leukemia
  GI50: 6.91 µM
  TGI: > 100 µM
KM12 colon
  GI50: 19.2 µM
  TGI: 62.2 µM
LOX IMVI melanoma
  GI50: 14.5 µM
  TGI: 28.6 µM
M14 melanoma
  GI50: 17.7 µM
  TGI: 40.4 µM
MALME-3M melanoma
  GI50: 12.2 µM
  TGI: 25.5 µM
MCF7 breast
  GI50: 10.9 µM
  TGI: 25.2 µM
MDA-MB-231 breast
  GI50: 11.9 µM
  TGI: 24.9 µM
MDA-MB-435
  GI50: 9.18 µM
  TGI: 26 µM
MDA-MB-468 breast
  GI50: 5.77 µM
  TGI: 18.9 µM
MOLT-4 leukemia
  GI50: 6.41 µM
  TGI: > 100 µM
NCI-H226 lung
  GI50: 12.1 µM
  TGI: 30.2 µM
NCI-H23 lung
  GI50: 13.7 µM
  TGI: 28.2 µM
NCI-H460 lung
  GI50: 15.4 µM
  TGI: 33 µM
NCI-H522 lung
  GI50: 10.3 µM
  TGI: 25.1 µM
NCI/ADR-RES ovarian
  GI50: 12.8 µM
  TGI: 29.7 µM
OVCAR-3 ovarian
  GI50: 16.1 µM
  TGI: 37.2 µM
OVCAR-4 ovarian
  GI50: 15.3 µM
  TGI: 34.2 µM
OVCAR-5 ovarian
  GI50: 18.8 µM
  TGI: 48 µM
OVCAR-8 ovarian
  GI50: 16.1 µM
  TGI: 34.5 µM
PC-3 prostate
  GI50: 12.7 µM
  TGI: 33.8 µM
RPMI-8226 leukemia
  GI50: 20.5 µM
  TGI: > 100 µM
RXF 393 renal
  GI50: 4.99 µM
  TGI: 18.6 µM
SF-268 CNS
  GI50: 16.1 µM
  TGI: 47.9 µM
SF-295 CNS
  GI50: 12.3 µM
  TGI: 26.1 µM
SF-539 CNS
  GI50: 14.7 µM
  TGI: 30.5 µM
SK-MEL-2 melanoma
  GI50: 17.4 µM
  TGI: 36.5 µM
SK-MEL-28 melanoma
  GI50: 14.4 µM
  TGI: 30.2 µM
SK-MEL-5 melanoma
  GI50: 14.6 µM
  TGI: 31.3 µM
SK-OV-3 ovarian
  GI50: 19.3 µM
  TGI: 38.2 µM
SN12C renal
  GI50: 15.5 µM
  TGI: 31.1 µM
SNB-19 CNS
  GI50: 16.7 µM
  TGI: 33.7 µM
SNB-75 CNS
  GI50: 10.3 µM
  TGI: 23.6 µM
SR leukemia
  GI50: 8.56 µM
  TGI: > 100 µM
SW-620 colon
  GI50: 15.5 µM
  TGI: 37.7 µM
T-47D breast
  GI50: 11.6 µM
  TGI: 30 µM
TK-10 renal
  GI50: 17.5 µM
  TGI: 35.6 µM
U251 CNS
  GI50: 16.9 µM
  TGI: 33.4 µM
UACC-257 melanoma
  GI50: 14.1 µM
  TGI: 28.6 µM
UACC-62 melanoma
  GI50: 12.4 µM
  TGI: 25.5 µM
UO-31 renal
  GI50: 11.4 µM
  TGI: 24.1 µM
